# BindingDB's records for doi:10.1016/j.bmc.2020.115887 (Duquesne University, 2021)
# Assay: Inhibition of beta3 Tubulin (unknown origin) expressed in human HeLa cell line assessed as inhibition of cell proliferation measured after 48 hrs by SRB method
row,IC50 [nM],Structure (SMILES)
1,180,COc1ccc(N(C)c2nc(C)nc3c2CCC3)c2ccccc12
2,9.6,COc1cccc2cc(N(C)c3nc(N)nc4c3CCC4)ccc12
3,43,COc1cccc2cc(N(C)c3ncnc4c3CCC4)ccc12
4,9.6,COc1ccc(N(C)c2nc(C)nc3c2CCC3)cc1
